The source of these data is patent US7704995B2 (Exelixis, Inc., priority 2003, dated 2010).

The structures appear in SMILES notation.

In the assay the target is T1, Chk1 (Homo sapiens, UniProt O14757).
T1 construct: purchased Upstate Biotechnology
T1 sequence (O14757 1-476): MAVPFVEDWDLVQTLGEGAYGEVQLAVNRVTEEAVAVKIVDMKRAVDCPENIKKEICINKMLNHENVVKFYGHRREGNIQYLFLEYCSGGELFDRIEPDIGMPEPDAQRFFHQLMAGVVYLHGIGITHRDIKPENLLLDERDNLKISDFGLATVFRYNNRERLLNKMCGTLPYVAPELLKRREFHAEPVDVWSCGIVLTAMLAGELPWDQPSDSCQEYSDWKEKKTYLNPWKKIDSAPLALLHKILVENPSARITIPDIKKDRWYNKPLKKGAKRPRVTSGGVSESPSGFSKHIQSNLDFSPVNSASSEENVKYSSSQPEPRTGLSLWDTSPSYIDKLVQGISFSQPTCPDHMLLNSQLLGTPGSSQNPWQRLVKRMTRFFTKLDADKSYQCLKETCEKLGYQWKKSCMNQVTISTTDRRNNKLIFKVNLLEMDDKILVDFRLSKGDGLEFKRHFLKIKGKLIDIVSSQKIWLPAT
In words: Chk1 kinase assay: incorporation of γ-33P ATP into immobilized myelin basic protein. It is filed as biochemical. The following applies: read-out: Chk1 IC50. The protocol:
Chk1 and Chk2 assays were performed by measuring incorporation of γ-^33P ATP into immobilized myelin basic protein (MBP). High binding white 384 well plates (Greiner) were coated with MBP (Sigma #M-1891) by incubation of 60 ul/well of 20 μg/ml MBP in Tris-buffered saline (TBS; 50 mM Tris pH 8.0, 138 mM NaCl, 2.7 mM KCl) for 24 hours at 4° C. Plates were washed 3× with 100 μl TBS. Kinase reactions were carried out in a total volume of 34 μl in kinase buffer (5 mM Hepes pH 7.6, 15 mM NaCl, 0.01% bovine gamma globulin (Sigma #I-5506), 10 mM MgCl2, 1 mM DTT, 0.02% TritonX-100). Compound dilutions were performed in DMSO and added to assay wells to a final DMSO concentration of 1%. Each data point was measured in duplicate, and at least two duplicate assays were performed for each individual compound determination. Chk1 and Chk2 enzymes (Upstate Biotechnology) were added to final concentrations of 10 nM (Chk1) or 20 nM (Chk2). A mixture of unlabeled ATP and γ-^33P ATP was added to start the reaction (2×10^6 cpm of γ-^33P ATP per well (3000 Ci/mmole) and either 10 μM or 30 μM unlabeled ATP (for Chk1 and Chk2 assays respectively). The reaction was carried out for 1 hour at room temperature with shaking. Plates were washed 7× with TBS, followed by the addition of 50 μl/well scintillation fluid (Wallac). Plates were read using a Wallac Trilux counter. This is only one format of such assays, various other formats are possible, as known to those skilled in the art.
The above assay procedure can be used to determine the IC50 for inhibition and/or the inhibition constant Ki. The IC50 is defined as the concentration of compound required to reduce the enzyme activity by 50% under the conditions of the assay. […] The Ki for a compound may be determined from the IC50 based on three assumptions. First, only one compound molecule binds to the enzyme and there is no cooperativity. […] Third, the enzymatic rate of the enzyme-inhibitor complex is zero. The rate (i.e., compound concentration) data are fitted to the equation: […]

Take `CNC(=O)c1nc(-c2cccc(C(=O)NCc3ccccn3)c2)cnc1N` [Example 121, 3-amino-N-methyl-6-(3-{[(pyridin-2-ylmethyl)amino]carbonyl}phenyl)pyrazine-2-carboxamide]: the half-maximal inhibitory concentration (IC50) lay within 0.05 to 1 µM.

As for `CNC(=O)c1nc(-c2cccc(C(=O)NCc3cccnc3)c2)cnc1N` [Example 122, 3-amino-N-methyl-6-(3-{[(pyridin-3-ylmethyl)amino]carbonyl}phenyl)pyrazine-2-carboxamide], the IC50 was in the range of 0.05 to 1 µM.

With `CNC(=O)c1nc(-c2cccc(C(=O)NCc3ccncc3)c2)cnc1N` [Example 123, 3-amino-N-methyl-6-(3-{[(pyridin-4-ylmethyl)amino]carbonyl}phenyl)pyrazine-2-carboxamide], the concentration for half-maximal inhibition (IC50) lay within 0.05 to 1 µM.

For `CNC(=O)c1nc(-c2cccc(NC(=O)c3ccco3)c2)cnc1N` [Example 124, 3-amino-6-{3-[(furan-2-ylcarbonyl)amino]phenyl}-N-methylpyrazine-2-carboxamide], the IC50 was in the range of 0.05 to 1 µM.

Take `CNC(=O)c1nc(-c2cccc(C(=O)NCc3cccc(Cl)c3)c2)cnc1N` [Example 125, 3-amino-6-[3-({[(3-chlorophenyl)methyl]amino}carbonyl)phenyl]-N-methylpyrazine-2-carboxamide]: the IC50 fell in the range of 0.05 to 1 µM.

As for `CNC(=O)c1nc(-c2cccc(C(=O)NCC3CCCCC3)c2)cnc1N` [Example 126, 3-amino-6-(3-{[(cyclohexylmethyl)amino]carbonyl}phenyl)-N-methylpyrazine-2-carboxamide], the IC50 was 0.05 to 1 µM.

With `CNC(=O)c1nc(-c2cccc(C(=O)NCC(C)c3ccccc3)c2)cnc1N` (stereo not drawn) [Example 127, 3-amino-N-methyl-6-(3-{[(2-phenylpropyl)amino]carbonyl}phenyl)pyrazine-2-carboxamide], the IC50 fell in the range of 0.05 to 1 µM.

Turning to `CNC(=O)c1nc(-c2cccc(C(=O)NCc3ccccc3Cl)c2)cnc1N` [Example 128, 3-amino-6-[3-({[(2-chlorophenyl)methyl]amino}carbonyl)phenyl]-N-methylpyrazine-2-carboxamide], the IC50 lay in the range of 0.05 to 1 µM.

Consider `CNC(=O)c1nc(-c2cccc(C(=O)NCCc3ccccc3Cl)c2)cnc1N` [Example 129, 3-amino-6-[3-({[2-(2-chlorophenyl)ethyl]amino}carbonyl)phenyl]-N-methylpyrazine-2-carboxamide], for which the IC50 lay in the range of 0.05 to 1 µM.

In the case of `CNC(=O)c1nc(-c2cccc(C(=O)NCCc3ccccc3OC)c2)cnc1N` [Example 130, 3-amino-N-methyl-6-{3-[({2-[2-(methyloxy)phenyl]ethyl}amino)carbonyl]phenyl}pyrazine-2-carboxamide], the IC50 was 0.05 to 1 µM.

For `CNC(=O)c1nc(-c2cccc(C(=O)NCCc3ccc(F)cc3)c2)cnc1N` [Example 131, 3-amino-6-[3-({[2-(4-fluorophenyl)ethyl]amino}carbonyl)phenyl]-N-methylpyrazine-2-carboxamide], the IC50 is 0.05 to 1 µM.

As to `CNC(=O)c1nc(-c2cccc(C(=O)NCCc3cccs3)c2)cnc1N` [Example 132, 3-amino-N-methyl-6-[3-({[2-(2-thienyl)ethyl]amino}carbonyl)phenyl]pyrazine-2-carboxamide], the IC50 lay in the range of 0.05 to 1 µM.

As for `CNC(=O)c1nc(-c2cccc(C(=O)NC3CCCCC3)c2)cnc1N` [Example 133, 3-amino-6-{3-[(cyclohexylamino)carbonyl]phenyl}-N-methylpyrazine-2-carboxamide], the half-inhibitory concentration (IC50) lay in the range of 1 to 10 µM.

Consider `CNC(=O)c1nc(-c2cccc(C(=O)NCC3CCN(C(=O)OC(C)(C)C)CC3)c2)cnc1N` [Example 134, 1,1-dimethylethyl 4-({[(3-{5-amino-6-[(methylamino)carbonyl]pyrazin-2-yl}phenyl)carbonyl]amino}methyl)piperidine-1-carboxylate], for which the 50% inhibitory concentration (IC50) lay within 0.05 to 1 µM.

For `CNC(=O)c1nc(-c2cccc(C(=O)NCC3CCNCC3)c2)cnc1N` [Example 135, 3-amino-N-methyl-6-(3-{[(piperidin-4-ylmethyl)amino]carbonyl}phenyl)pyrazine-2-carboxamide], the IC50 is 0.05 to 1 µM.

For `CNC(=O)c1nc(-c2cccc(-c3noc(-c4ccccc4)n3)c2)cnc1N` [Example 136, 3-amino-N-methyl-6-[3-(5-phenyl-1,2,4-oxadiazol-3-yl)phenyl]pyrazine-2-carboxamide], the IC50 fell in the range of 1 to 10 µM.

With `CNC(=O)c1nc(-c2cccc(-c3noc(Cc4ccccc4)n3)c2)cnc1N` [Example 137, 3-amino-N-methyl-6-{3-[5-(phenylmethyl)-1,2,4-oxadiazol-3-yl]phenyl}pyrazine-2-carboxamide], the IC50 fell in the range of 1 to 10 µM.

With `CNC(=O)c1nc(-c2cccc(-c3noc(CCc4ccccc4)n3)c2)cnc1N` [Example 138, 3-amino-N-methyl-6-{3-[5-(2-phenylethyl)-1,2,4-oxadiazol-3-yl]phenyl}pyrazine-2-carboxamide], the half-maximal inhibitory concentration (IC50) fell in the range of 1 to 10 µM.

On to `CNC(=O)c1nc(-c2cccc(C(=O)NC(C)(C)C)c2)cnc1N` [Example 139, 3-amino-6-(3-{[(1,1-dimethylethyl)amino]carbonyl}phenyl)-N-methylpyrazine-2-carboxamide], for which the IC50 was 1 to 10 µM.

Regarding `CNC(=O)c1nc(-c2cccc(C(=O)N[C@@H]3c4ccccc4C[C@@H]3O)c2)cnc1N` [Example 140, 3-amino-6-[3-({[(1R,2S)-2-hydroxy-2,3-dihydro-1H-inden-1-yl]amino}carbonyl)phenyl]-N-methylpyrazine-2-carboxamide], the concentration for half-maximal inhibition (IC50) lay in the range of 0.05 to 1 µM.

As for `CNC(=O)c1nc(-c2cccc(C(=O)N[C@H]3c4ccccc4C[C@H]3O)c2)cnc1N` [Example 141, 3-amino-6-[3-({[(1S,2R)-2-hydroxy-2,3-dihydro-1H-inden-1-yl]amino}carbonyl)phenyl]-N-methylpyrazine-2-carboxamide], the IC50 was in the range of 1 to 10 µM.

Take `CNC(=O)c1nc(-c2cccc(C(=O)Nc3ccccc3)c2)cnc1N` [Example 142, 3-amino-N-methyl-6-{3-[(phenylamino)carbonyl]phenyl}pyrazine-2-carboxamide]: the half-inhibitory concentration (IC50) was in the range of 1 to 10 µM.

Consider `CNC(=O)c1nc(-c2cccc(C(=O)N3Cc4ccccc4C3)c2)cnc1N` [Example 143, 3-amino-6-[3-(1,3-dihydro-2H-isoindol-2-ylcarbonyl)phenyl]-N-methylpyrazine-2-carboxamide], for which the IC50 was 1 to 10 µM.

Consider `CNC(=O)c1nc(-c2cccc(C(=O)N[C@H](C)c3ccccc3)c2)cnc1N` [Example 144, 3-amino-N-methyl-6-[3-({[(1R)-1-phenylethyl]amino}carbonyl)phenyl]pyrazine-2-carboxamide], for which the IC50 fell in the range of 1 to 10 µM.

On to `CNC(=O)c1nc(-c2cccc(C(=O)N[C@@H](C)c3ccccc3)c2)cnc1N` [Example 145, 3-amino-N-methyl-6-[3-({[(1S)-1-phenylethyl]amino}carbonyl)phenyl]pyrazine-2-carboxamide], for which the IC50 lay in the range of 0.05 to 1 µM.

Turning to `CC[C@@H](NC(=O)c1cccc(-c2cnc(N)c(C(=O)NC)n2)c1)c1ccccc1` [Example 146, 3-amino-N-methyl-6-[3-({[(1R)-1-phenylpropyl]amino}carbonyl)phenyl]pyrazine-2-carboxamide], the half-maximal inhibitory concentration (IC50) was in the range of 1 to 10 µM.

As for `CC[C@H](NC(=O)c1cccc(-c2cnc(N)c(C(=O)NC)n2)c1)c1ccccc1` [Example 147, 3-amino-N-methyl-6-[3-({[(1S)-1-phenylpropyl]amino}carbonyl)phenyl]pyrazine-2-carboxamide], the concentration for half-maximal inhibition (IC50) was in the range of 1 to 10 µM.

As to `CNC(=O)c1nc(-c2cccc(C(=O)N[C@@H]3C[C@H]3c3ccccc3)c2)cnc1N` [Example 148, 3-amino-N-methyl-6-[3-({[(1R,2S)-2-phenylcyclopropyl]amino}carbonyl)phenyl]pyrazine-2-carboxamide], the IC50 fell in the range of 0.05 to 1 µM.

For `CNC(=O)c1nc(-c2ccc(C(=O)OCc3ccccc3)cc2)cnc1N` [Example 149, phenylmethyl 4-{5-amino-6-[(methylamino)carbonyl]pyrazin-2-yl}benzoate], the IC50 is ≥ 10 µM.

On to `CNC(=O)c1nc(-c2ccc(C(=O)NCc3ccccc3)cc2)cnc1N` [Example 150, 3-amino-N-methyl-6-(4-{[(phenylmethyl)amino]carbonyl}phenyl)pyrazine-2-carboxamide], for which the 50% inhibitory concentration (IC50) was in the range of 1 to 10 µM.
